Data as given in patent US10350257B2, “Pharmaceutical composition containing complex extract of Crataegi fructus and Citri pericarpium as an active ingredient for treating or preventing obesity or lipid-related metabolic diseases” (NEUMED, priority 2012, dated 2019).
Marks after values point to notes of the source that are not given here.

Key:
[1] = system: diet-induced obesity (DIO) white rat models; assay: Body weight gain in high-fat diet obese animal models (8 weeks); assay type: in vivo, Sprague-Dawley male white rats; conditions: oral twice a day for 8 weeks, extracts 100 mg/kg, HCA 390 mg/kg
Procedure: (§1) Animal experiments were performed on Sprague-Dawley ([…] BIO Korea) male white rats weighing 80 to 100 g. 3. Selection of Experimental Groups • Normal group (AIN-93G, Normal diet+fed with secondary distilled water); • Control group (60% Kcal high-fat diet+fed with secondary distilled water); • Positive control group (60% Kcal high-fat diet+administered with 390 mg/kg of […] Fructus extract-administered group (high-fat diet+administered with 100 mg/kg of […] Fructus extract of Comparative Example 1); • Citri Pericarpium extract-administered group (high-fat diet+administered with 100 mg/kg of the Citri Pericarpium extract of Comparative Example 2); and • Complex extract-administered group (high-fat diet+administered with 100 mg/kg of the complex extract of Example 1 or 2). The temperature was 22±2° C., the relative humidity was 50±10%, and the dark-light cycle (light on at 07:00 light off at 19:00) was controlled with fluorescent lighting. […] Moreover, all the experimental groups were sacrificed after 8 weeks to collect blood samples, serums were separated from the blood samples, and the blood triglyceride (mg/dL) and the total cholesterol (mg/dL) were analyzed using a biochemical analyzer ([…], USA).

[2] = system: diet-induced obesity (DIO) white rat models; assay: Blood triglyceride and total cholesterol in serum of high-fat diet obese animal models after 8 weeks; assay type: in vivo, Sprague-Dawley male white rats; conditions: serum after 8 weeks; high-fat diet rats; extracts 100 mg/kg, HCA 390 mg/kg oral twice a day
Procedure: as §1

[3] = 1,500 mg HCA daily, 12-week clinical trial; cited from earlier work
[4] = about 3 g daily, after 3 months, clinical trials; cited from earlier work

Compound | Body weight gain ([1]; 60% Kcal high-fat diet rats, mean±SD) | Reduction in rate of body weight gain ([1]; vs high-fat diet control group) | Total cholesterol [2] | Total triglyceride [2] | Weight loss effect compared to the placebo group [3] | Average body weight lost [4] | Body fat reduced [4]
O=C(O)CC(O)(C(=O)O)C(O)C(=O)O (stereo not shown) [HCA, hydroxycitrate] | 333.2 ± 12.2 g | 7.3* % | 59.8 ± 11.2 mg/dL | 134.2 ± 21.3 mg/dL | no weight loss effect |  | 
conjugated linoleic acid |  |  |  |  |  | 2.5 kg | 15 to 20%
